Data as given in patent publication US8853261B2, “Nutraceutical composition from Garcinia mangostana” (Laila Nutraceuticals, priority 2008, dated 2014).
Several values for one entry are separate records, joined by “and”; a condition that tells them apart may be missing. Equal entries are not always repeated. Entries after “also recorded” stand apart in the source; their conditions may differ.

Assays:
potato 5-lipoxygenase = assay: 5-Lipoxygenase enzyme inhibitory activity; format: biochemical; conditions: for 5-Lipoxygenase inhibitory activity IC50 values: potato 5-lipoxygenase, linoleic acid substrate
Method: 5-Lipoxygenase enzyme inhibitory activity was measured using the method of Schewe et al. (Adv Enzymol, Vol 58: pp 191-272, 1986), modified by Reddanna et. al., (Methods of Enzymology, Vol 187: pp 268-277, 1990). The assay mixture contained 80 μM linoleic acid and sufficient amount of potato 5-lipoxygenase in 50 mM phosphate buffer (pH 6.3). The reaction was initiated by the addition of enzyme buffer mix to linoleic acid and the enzyme activity was monitored as the increase in absorbance at 234 nm. The reaction was monitored for 120 sec and the inhibitory potential of the test substances was measured by incubating various concentrations of test substances two minutes before the addition of linoleic acid. All assays were performed three times. The IC50 values were calculated from the plot drawn of the concentrations of test substances versus percentage inhibition.

[1] = system: adipocyte fatty acid-binding protein (aP2); assay: Down-regulation of aP2 protein expression in LPS-induced THP-1 derived macrophages (Western blot); format: cell-based, human; conditions: 5 μg/ml, 2 h pretreatment, LPS 100 ng/ml 16 h, normalized to actin
Method: The inventors also assessed the effect of α-mangostin and γ-mangostin on adipocyte fatty acid-binding protein aP2 expression in human monocytes-macrophage cells in a cell based in vitro model. In this experiment, THP-1 human monocyte-macrophage cells were pre-treated with 5 μg/ml of γ-mangostin or α-mangostin for 2 h and thereafter primed with LPS to induce the inflammatory response. The cellular proteins were extracted by cell lysis buffer and subjected to immuno-western blot to detect the modulation of expression of aP2 protein.
Down-regulation of aP2 protein expression by α-mangostin and γ-mangostin was evaluated in a cell based in vitro model. […] The protein content was measured by Coomassie blue based Bradford method and equal amount of cellular protein lysates (2 μg) was resolved in 15% SDS-Polyacrylamide gels. […] The aP2 protein expression was specifically detected by chemiluminescent substrate (Pierce, USA); detection of chemiluminescent bands and densitometric analyses were carried out on Kodak 4000 mM image station (supplied by Kodak, USA). The same nitrocellulose blots were stripped and re-probed with anti-actin antibody (Sigma Chemical CO, USA) and actin protein expression was recorded as an indication of equal protein loading in each lane. […]

TNF-α = assay: Inhibition of LPS-induced TNF-α in THP-1 human monocytes (EIA); format: cell-based; conditions: THP-1 cells, 2 h pretreatment, 100 ng/ml LPS 4 h
Method: Inhibition of Tumor necrosis factor-α (TNF-α) in vitro by α-mangostin and γ-mangostin: The anti-inflammatory activities of α-mangostin, γ-mangostin and composition-I were assessed in a cell based in vitro assay. Briefly, THP-1 human monocytes cells were washed and re-suspended in phenol red free Dulbecco's Modified Eagle's Medium (DMEM) supplemented with 1% fetal Bovine serum (FBS). Equal number of cells was added to each well of a 96-well TC plate and the cells were pretreated for 2 h with various concentrations of test substances (ranging from 0.5 to 50 μg/ml; solutions prepared in culture medium from a stock solution containing 50 mg/l mL DMSO of each test compound) of α-mangostin, γ-mangostin and composition-I. The inflammatory response was induced by treatment with 100 ng/ml of LPS for 4 h at 37° C. in presence of 5% CO2. The vehicle control culture wells received 0.1% DMSO in culture medium. The cell culture supernatants were collected and assessed for secretary pro-inflammatory cytokine, TNFα. The TNF-α concentration was quantitatively measured by highly specific and sensitive Enzyme Immuno Assay (EIA) kit supplied by R&D Systems, USA. The enzyme immuno assay was performed based on the protocol provided by the vendor. The inhibitory concentration for 50% inhibition (IC50) of TNF-α was determined from a plot drawn for ingredient concentration against TNF-α level.

Row | Compound | 5-Lipoxygenase inhibitory activity IC50 values (potato 5-lipoxygenase) | Inhibition of LPS induced aP2 protein expression [1] | IC50 for TNFα (TNF-α) | Relative potency of O-demethylxanthone versus O-methyl counterpart (potato 5-lipoxygenase; comparison in words)
1 | COc1c(O)cc2oc3cc(O)c(CC=C(C)C)c(O)c3c(=O)c2c1CCC(C)(C)O [Garcinone D] | 5.7 µg/mL |  |  | 
2 | COc1c(O)cc2oc3cc(O)c(CC=C(C)C)c(O)c3c(=O)c2c1CC=C(C)C [α-mangostin] |  | inhibition of aP2 protein expression |  | 
3 | CC(C)=CCc1c(O)cc2oc3cc(O)c(O)c(CC=C(C)C)c3c(=O)c2c1O [γ-mangostin] | 0.52 µg/mL | more potent inhibitor of aP2 in vitro compared to α-mangostin; also recorded: inhibited the LPS induced aP2 expression more strongly compared to α-mangostin | 3.32 µg/mL and 3.322 µg/mL | 
4 | Garcinone C | 2.8 µg/mL |  |  | relatively higher potency compared to its natural O-methyl counterpart, garcinone D
